Assay results reported in US11352350B2, “IRAK degraders and uses thereof” (Kymera Therapeutics, Inc., priority 2018, dated 2022).
Where two headings read alike, the source gives them in different places.

Key:
IRAK4 [1] = target: T1, IRAK4 (Homo sapiens (Human), UniProt Q9NWZ3); assay: hPBMC IRAK4 degradation flow assay; assay type: cell-based; details: hPBMC monocyte
Protocol: hPBMC IRAK4 degradation flow assay. Frozen PBMCs were thawed into RPMI with 10% FBS and allowed to recover. On the same day as thawed, PBMCs were plated in 96 well plate, 90 uL per well. Compound plates were prepared and a 10 point, 5-fold dilution was performed with a final DMSO concentration of 0.1%. Compound 10 μL per well was added, sealed and incubated at 37° C., 5% C02 for 20 hours (for 4 hour treatment, compounds were prepared and added the following day). […] Cells were spun down and washed two times with PBS/0.5% BSA, aspirated to pellet and placed into −80° C. freezer until further processing for flow. On the flow run day, PBMC plates were thawed and samples were transferred to PCR plates. The pre-perm staining cocktail (CD3 Ax488/CD8 BUV805/CD14 BUV395/CD16/56 BV711/CD19 BV785) was added to samples and incubated for 30 minutes at room temperature. Samples were washed two times and permeabilized with methanol for 10 minutes at 4° C. […] Samples were washed two times with PBS/BSA and run on a BD LSRFortessa. Mononuclear cells are gated by SSCH/FSCH and single cells. Monocytes are then gated through CD14 positive gate and lymphocytes are gated through CD14 negative gate. To determine absolute DC50s and max degradation values, MFI values were normalized to DMSO max and 20 hour 10 μM min control. Twenty hour dose curves were calculated using a 4 parameter logistic regression curve fit, no constraints (Top doses were removed if hook effects were observed and the bottom was constrained to 0).

IL-6 = IL-6 secretion in hPBMC using R848 stimulation; assay type: cell-based, human; details: Homo sapiens, 20 h
IRAK4 [2] = target: T1, IRAK4; assay: IRAK4 MSD degradation in OCI-LY10; assay type: cell-based
Procedure, shortened: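 Remaining IRAK4 quantified by electrochemiluminescent MSD sandwich assay with two anti-IRAK4 antibodies. Compounds were dosed as 8 concentrations in 1:3 steps from a 1 to 10 μM final top on OCI-LY10 cells, incubated 4 to 24 h at 37° C. under 5% CO2. DC50 fitted with a three-parameter logistic curve.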

OCI-LY10 = assay: CTG Cell Viability Assay - OCI-LY10; assay type: cell-based, human; details: OCI-LY10, 4 days, read-out: CTG Cell Viability Assay - OCI-LY10: Average external-IC50
Procedure, shortened: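 Viability read by CellTiter-Glo luminescence after 4 days at 37° C under 5% CO2 with compound (top 10 μM final, 1:3 steps, 9 doses, DMSO 0.2%). Three-parameter logistic fit gave IC50.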

[3] = 20 hr, flow assay, read-out: IRAK4 degradation in hPBMC monocyte at 20 hr: Average external Abs DC50
[4] = 20 hrs, read-out: IRAK4 degradation in hPBMC monocyte: DC50
[5] = OCI-LY10, 4 hrs, read-out: IRAK4 MSD degradation in OCI-LY10 at 4 hrs: DC50
[6] = OCI-LY10, 4 hrs, MSD, read-out: IRAK4 MSD degradation in OCI-LY10 at 4 hrs: Average external-Abs DC50

T1 sequence (Q9NWZ3 whole entry): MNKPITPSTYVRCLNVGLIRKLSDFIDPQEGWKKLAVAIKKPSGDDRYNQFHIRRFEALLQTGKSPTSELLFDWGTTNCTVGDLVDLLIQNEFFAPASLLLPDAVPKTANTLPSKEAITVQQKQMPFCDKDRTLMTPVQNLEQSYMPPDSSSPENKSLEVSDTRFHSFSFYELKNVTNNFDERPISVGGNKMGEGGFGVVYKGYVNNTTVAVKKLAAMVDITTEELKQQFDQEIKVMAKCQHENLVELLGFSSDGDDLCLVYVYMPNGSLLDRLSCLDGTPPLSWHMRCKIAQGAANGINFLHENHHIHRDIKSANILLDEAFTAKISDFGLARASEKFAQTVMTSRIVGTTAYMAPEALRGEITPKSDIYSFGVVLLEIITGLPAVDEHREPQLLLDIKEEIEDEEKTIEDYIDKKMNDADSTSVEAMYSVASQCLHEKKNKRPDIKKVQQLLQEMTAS

Row | Structure (SMILES) | IC50 (IL-6; hPBMC, R848 as stim, t = 20 h) [nM] | DC50 (IRAK4 [1]; [4]) [nM] | DC50 (IRAK4 [2]; [5]) [nM] | also measured
1 | Cn1c(=O)n(C2CCC(=O)NC2=O)c2cccc(CCCC3CCN(Cc4ccc(C5N=C(NC(=O)c6cnn7ccc(N8C[C@H]9C[C@@H]8CO9)nc67)C(C(F)F)=N5)cc4)CC3)c21 (stereo partly shown) [I-428] | 1 to 10 | – | – | DC50 (IRAK4 [1]; [3]): < 10 nM
2 | Cn1c(=O)n(C2CCC(=O)NC2=O)c2cccc(CC3CC4(CCN(Cc5ccc(-n6cc(NC(=O)c7cnn8ccc(N9C[C@H]%10C[C@@H]9CO%10)nc78)c(C(F)F)n6)cc5)CC4)C3)c21 (stereo partly shown) [I-466] | 1 to 10 | < 10 | 100 to 1000 | –
3 | Cn1c(=O)n(C2CCC(=O)NC2=O)c2cccc(C#CCCCOC[C@H]3CC[C@H](n4cc(NC(=O)c5cnn6ccc(N7C[C@H]8C[C@@H]7CO8)nc56)c(C(F)F)n4)CC3)c21 (stereo partly shown) [I-446] | 10 to 100 | – | – | –
4 | Cn1c(=O)n(C2CCC(=O)NC2=O)c2cccc(CCCOC[C@H]3CN(C[C@H]4CC[C@H](n5cc(NC(=O)c6cnn7ccc(N8CCOCC8)nc67)c(C(F)F)n5)CC4)CCO3)c21 (stereo partly shown) [I-430] | 1 to 10 | – | – | DC50 (IRAK4 [1]; [3]): < 10 nM
5 | Cn1c(=O)n(C2CCC(=O)NC2=O)c2ccc(C#CCOC3CCN(C[C@H]4CC[C@H](n5cc(NC(=O)c6cnn7ccc(N8C[C@H]9C[C@@H]8CO9)nc67)c(C(F)F)n5)CC4)CC3)cc21 (stereo partly shown) [I-483] | – | – | – | IC50 (OCI-LY10; Homo sapiens, 96 h): > 1000 nM; IC50 (IL-6; read-out: IL-6 Secretion in hPBMC, R848 as stim, t = 20 h: IC50): 1 to 10 nM
6 | C[C@@H]1CN(c2ccn3ncc(C(=O)NC4=NC([C@H]5CC[C@H](CN6CCC(CCCc7cccc8c7n(C)c(=O)n8C7CCC(=O)NC7=O)CC6)CC5)N=C4C(F)F)c3n2)C[C@@H](C)O1 (stereo partly shown) [I-537] | 1 to 10 | < 10 | < 10 | –
7 | C[C@H]1CN(c2ccn3ncc(C(=O)NC4=NC([C@H]5CC[C@H](CN6CCC(CCCc7cccc8c7n(C)c(=O)n8C7CCC(=O)NC7=O)CC6)CC5)N=C4C(F)F)c3n2)C[C@H](C)O1 (stereo partly shown) [I-543] | < 1 | < 10 | 10 to 100 | –
8 | C[C@@H]1CN(c2ccn3ncc(C(=O)Nc4cn([C@H]5CC[C@H](CN6CCC(CCCc7cccc8c7n(C)c(=O)n8C7CCC(=O)NC7=O)CC6)CC5)nc4C(F)F)c3n2)C[C@H](C)O1 (stereo partly shown) [I-540] | 1 to 10 | < 10 | 10 to 100 | –
9 | Cn1c(=O)n(C2CCC(=O)NC2=O)c2cccc(CN3CC4(CCN(Cc5ccc(-n6cc(NC(=O)c7cnn8ccc(N9C[C@H]%10C[C@@H]9CO%10)nc78)c(C(F)F)n6)cc5)CC4)C3)c21 (stereo partly shown) [I-464] | 1 to 10 | 10 to 100 | 10 to 100 | –
10 | Cn1c(=O)n(C2CCC(=O)NC2=O)c2cccc(CCC(=O)N3CCC4(CCN(C[C@H]5CC[C@H](n6cc(NC(=O)c7cnn8ccc(N9C[C@H]%10C[C@@H]9CO%10)nc78)c(C(F)F)n6)CC5)CC4)CC3)c21 (stereo partly shown) [I-467] | < 1 | < 10 | < 10 | –
11 | Cn1c(=O)n(C2CCC(=O)NC2=O)c2cccc(CCCCN3CCN(C(=O)[C@H]4CC[C@H](n5cc(NC(=O)c6cnn7ccc(N8C[C@H]9C[C@@H]8CO9)nc67)c(C(F)F)n5)CC4)CC3)c21 (stereo partly shown) [I-472] | < 1 | < 10 | < 10 | –
12 | Cn1c(=O)n(C2CCC(=O)NC2=O)c2cccc(CN3CCC4(CC3)CCN(C(=O)c3ccc(C5N=C(NC(=O)c6cnn7ccc(N8C[C@H]9C[C@@H]8CO9)nc67)C(C(F)F)=N5)cc3)CC4)c21 (stereo partly shown) [I-432] | 1 to 10 | – | – | DC50 (IRAK4 [1]; [3]): < 10 nM
13 | Cn1c(=O)n(C2CCC(=O)NC2=O)c2cccc(C#CCOC3CCN(C[C@H]4CC[C@H](n5cc(NC(=O)c6cnn7ccc(N8C[C@H]9CC[C@@H](C8)O9)nc67)c(C(F)F)n5)CC4)CC3)c21 (stereo partly shown) [I-547] | 1 to 10 | < 10 | < 10 | –
14 | C[C@@H]1CN(c2ccn3ncc(C(=O)NC4=NC([C@H]5CC[C@H](CN6CCC(CC#Cc7cccc8c7n(C)c(=O)n8C7CCC(=O)NC7=O)CC6)CC5)N=C4C(F)F)c3c2)C[C@@H](C)O1 (stereo partly shown) [I-528] | 1 to 10 | < 10 | 10 to 100 | –
15 | Cn1c(=O)n(C2CCC(=O)NC2=O)c2cccc(CCCCN3CCN(C[C@H]4CC[C@H](n5cc(NC(=O)c6cnn7ccc(N8C[C@H]9C[C@@H]8CO9)nc67)c(C(F)F)n5)CC4)CC3)c21 (stereo partly shown) [I-471] | < 1 | < 10 | < 10 | –
16 | Cn1c(=O)n(C2CCC(=O)NC2=O)c2cccc(CN3CCN(CC[C@H]4CC[C@H](n5cc(NC(=O)c6cnn7ccc(N8C[C@H]9C[C@@H]8CO9)nc67)c(C(F)F)n5)CC4)CC3)c21 (stereo partly shown) [I-510] | 1 to 10 | < 10 | – | IC50 (OCI-LY10; Homo sapiens, OCI-Ly10, 96 h): > 1000 nM
17 | Cn1c(=O)n(C2CCC(=O)NC2=O)c2ccc(CCCN3CC4(CCN(C(=O)c5ccc(C6N=C(NC(=O)c7cnn8ccc(N9C[C@H]%10C[C@@H]9CO%10)nc78)C(C(F)F)=N6)cc5)CC4)C3)cc21 (stereo partly shown) [I-433] | < 1 | – | – | DC50 (IRAK4 [1]; [3]): < 10 nM
18 | Cn1c(=O)n(C2CCC(=O)NC2=O)c2cccc(CCCN3CCOC4(CCN(C(=O)[C@H]5CC[C@H](n6cc(NC(=O)c7cnn8ccc(N9C[C@H]%10C[C@@H]9CO%10)nc78)c(C(F)F)n6)CC5)CC4)C3)c21 (stereo partly shown) [I-431] | < 1 | – | – | DC50 (IRAK4 [1]; [3]): < 10 nM
19 | Cn1c(=O)n(C2CCC(=O)NC2=O)c2cccc(CCOC3CC4(CCN(C[C@H]5CC[C@H](n6cc(NC(=O)c7cnn8ccc(N9C[C@H]%10C[C@@H]9CO%10)nc78)c(C(F)F)n6)CC5)CC4)C3)c21 (stereo partly shown) [I-469] | < 1 | < 10 | < 10 | –
20 | CN(CCCOCCCNc1cccc2c1C(=O)N(C1CCC(=O)NC1=O)C2=O)Cc1ccc(-n2cc(NC(=O)c3cnn4ccc(N5C[C@H]6C[C@@H]5CO6)nc34)c(C(F)F)n2)cc1 (stereo partly shown) [I-320] | – | – | – | DC50 (IRAK4 [1]; [3]): 10 to 100 nM; DC50 (IRAK4 [2]; [6]): > 1000 nM; IC50 (OCI-LY10): > 1000 nM
21 | Cn1c(=O)n(C2CCC(=O)NC2=O)c2cccc(C[C@H]3CC[C@H](N(C)C[C@H]4CC[C@H](n5cc(NC(=O)c6cnn7ccc(N8C[C@H]9C[C@@H]8CO9)nc67)c(C(F)F)n5)CC4)CC3)c21 (stereo partly shown) [I-508] | 1 to 10 | < 10 | – | IC50 (OCI-LY10; Homo sapiens, OCI-Ly10, 96 h): > 1000 nM
22 | C[C@H]1CN(c2ccn3ncc(C(=O)NC4=NC([C@H]5CC[C@H](CN6CCC(CC#Cc7cccc8c7n(C)c(=O)n8C7CCC(=O)NC7=O)CC6)CC5)N=C4C(F)F)c3n2)C[C@H](C)O1 (stereo partly shown) [I-549] | 1 to 10 | < 10 | 10 to 100 | –
23 | O=C1CCC(N2C(=O)c3cccc(NCCCOCC4CCN(C[C@H]5CC[C@H](n6cc7cc(NC(=O)c8cccc(C(F)(F)F)n8)c(C(F)F)cc7n6)CC5)CC4)c3C2=O)C(=O)N1 (stereo partly shown) [I-327] | – | – | – | DC50 (IRAK4 [1]; [3]): 10 to 100 nM; DC50 (IRAK4 [2]; [6]): 10 to 100 nM; DC50 (IRAK4 [2]; OCI-LY10, 24 hrs, MSD, read-out: IRAK4 MSD degradation in OCI-LY10 at 24 hrs: Average external-Abs DC50): 10 to 100 nM; IC50 (OCI-LY10; Homo sapiens, OCI-Ly10, 96 h): 500 to 1000 nM
24 | CN(C[C@H]1CC[C@H](n2cc(NC(=O)c3cnn4ccc(N5C[C@H]6C[C@@H]5CO6)nc34)c(C(F)F)n2)CC1)C1CCN(Cc2cccc3c2n(C)c(=O)n3C2CCC(=O)NC2=O)CC1 (stereo partly shown) [I-465] | < 1 | < 10 | < 10 | –
25 | Cn1c(=O)n(C2CCC(=O)NC2=O)c2cccc(CCCOC3CCN(CCCCn4ncc(NC(=O)c5cnn6ccc(N7CCOCC7)nc56)c4C(F)F)CC3)c21 (stereo not shown) [I-488] | – | 100 to 1000 | 100 to 1000 | IC50 (OCI-LY10; Homo sapiens, OCI-Ly10, 96 h): > 1000 nM
26 | C[C@@H]1CN(c2ccn3ncc(C(=O)NC4=NC([C@H]5CC[C@H](CN6CCC(CC#Cc7cccc8c7n(C)c(=O)n8C7CCC(=O)NC7=O)CC6)CC5)N=C4C(F)F)c3c2)C[C@H](C)O1 (stereo partly shown) [I-530] | < 1 | < 10 | 10 to 100 | –
27 | Cn1c(=O)n(C2CCC(=O)NC2=O)c2cccc(CCCN3CCOC4(CCN(C[C@H]5CC[C@H](n6cc(NC(=O)c7cnn8ccc(N9C[C@H]%10C[C@@H]9CO%10)nc78)c(C(F)F)n6)CC5)CC4)C3)c21 (stereo partly shown) [I-434] | < 1 | – | – | DC50 (IRAK4 [1]; [3]): < 10 nM
28 | Cn1c(=O)n(C2CCC(=O)NC2=O)c2cccc(CCCN3CC4(CCN(C(=O)[C@H]5CC[C@H](n6cc(NC(=O)c7cnn8cccnc78)c(N7CCOCC7)n6)CC5)CC4)C3)c21 (stereo partly shown) [I-494] | – | 100 to 1000 | 100 to 1000 | IC50 (OCI-LY10; Homo sapiens, OCI-Ly10, 96 h): > 1000 nM
